Activity calls are given as the source filed them. No rule for the calls is given here.
system: Schistosoma mansoni; assay: In vitro activity screen on S. mansoni schistosomula at 10 uM. Compound-induced effects were assessed by quantifying larva motility and phenotype using Roboworm.; format: functional, organism-based; design: test concentration 10 uM, temperature 37 degree C, time incubation 72 h; conditions: Puerto Rican

SMILES | In vitro activity
CC1=C(C(=O)N2CCN(c3cccc(C(F)(F)F)c3)CC2)C2(CCN(CCc3ccc(F)cc3)CC2)OC1=O | inactive
CC1=C(C(=O)N2CCc3ccc(C(F)(F)F)cc3C2)C2(CCN(C3CCCCC3)CC2)OC1=O | inactive
CCCc1nn(C)c2c(=O)[nH]c(-c3cc(S(=O)(=O)n4ccc(O)cc4=O)ccc3OCC)nc12 | inactive
O=C(O)c1ccc(-c2nc(NCc3cccnc3)c3c(n2)sc2ccccc23)cc1 | inactive
CC1(C)C=C(n2ccccc2=O)c2cc(C#N)ccc2O1 | inactive
O=S(=O)(Nc1ccc2nsnc2c1)c1ccccc1-c1ccccc1 | inactive
Cc1cc(-c2ccccc2)c(S(C)(=O)=O)cc1C(=O)N=C(N)N | inactive
O=c1nc(Nc2cccc(Oc3ccncc3)c2)[nH]c2ccccc12 | inactive
CC1=C(C(=O)N2CCc3ccc(C(F)(F)F)cc3C2)C2(CCN(C3CCCC3)CC2)OC1=O | inactive
Cn1c2ccccc2c2c(NCc3ccc4c(c3)OCO4)nc(-c3ccc(C(=O)O)cc3)nc21 | inactive
CCOC(=O)c1ccc(C2=CSC3=Nc4ccccc4CCN23)cc1 | inactive
CCOc1cc(C2=NN(C(=O)c3ccc(NC(=O)c4ccc(OC)cc4)cc3)CCC2)ccc1OC | inactive
CCNC1=N[C@@H]2[C@@H](O)[C@H](O)[C@@H](Cn3cc(COc4ccc(Cl)cc4)nn3)O[C@@H]2S1 | inactive
CCCc1nn(C)c2c(=O)[nH]c(-c3cc(S(=O)(=O)Oc4cccnc4C)ccc3OCC)nc12 | inactive
CC1=C(C(=O)N2CCc3ccc(C(F)(F)F)cc3C2)C2(CCN(C(C)C)CC2)OC1=O | inactive
O=C(O)[C@H]1CC[C@H](c2nc(NCc3ccc4c(c3)OCO4)c3c4c(sc3n2)CCCC4)CC1 | inactive
C=CCSc1ccc(-c2nc3ccncc3[nH]2)c(OC)c1 | inactive
CCCCc1nc2ccn(CC(=O)N(C)C)c(=O)c2n1Cc1ccc(-c2ccccc2-c2nnn[nH]2)cc1 | inactive
CCCc1nn(C)c2c(=O)[nH]c(-c3cc(S(=O)(=O)Oc4ccncc4)ccc3OCC)nc12 | inactive
CCc1ccccc1N/C=C1\C(=O)N(c2ccc(S(=O)(=O)O)cc2)N=C1C | inactive
O=C(c1cc2c(s1)CC(C(=O)O)C2)c1ccccc1Cl (stereo unspecified) | inactive
COc1cc(C(=O)Nc2nc(Nc3cccc(C(F)(F)F)c3)n(C)n2)ccc1-n1cnc(C)c1 | inactive

SMILES | In vitro activity
COc1cc(C(=O)N(C)C)ccc1-c1cc2nccc(-c3ccc4ccncc4c3)c2o1 | inactive
CC1(C)Oc2ccc(C#N)cc2[C@@H](n2ccccc2=O)[C@@H]1O | inactive
COc1nc(/C=C/c2nc3n(n2)CCCC3c2ccccc2C(F)(F)F)ccc1-n1cnc(C)c1 (stereo unspecified) | inactive
CCCCc1nc2ccn(Cc3ccccc3C(=O)OCC)c(=O)c2n1Cc1ccc(-c2ccccc2-c2nn[nH]n2)cc1 | inactive
CSc1cc(C)c(C(=O)N=C(N)N)cc1S(C)(=O)=O | inactive
CCN1CCC2(CC1C)OC(=O)C(C)=C2C(=O)N1CCc2ccc(C(F)(F)F)cc2C1 (stereo unspecified) | inactive
O=C(O)c1ccc(CCN2C(=O)CCN2CCC(O)Cc2cccc(Br)c2)cc1 (stereo unspecified) | inactive
CC1=C(C(=O)N2CCc3ccc(C(F)(F)F)cc3C2)C2(CCN(C3CCOC(C)(C)C3)CC2)OC1=O (stereo unspecified) | inactive
COCc1cc(-c2nc(-c3cc(F)cc(CN(C)CC(=O)O)c3)no2)ccc1-c1ccccc1C | inactive
Cc1cc(Oc2ccccc2)c(S(C)(=O)=O)cc1C(=O)N=C(N)N | inactive
COCc1cc(-c2nc(-c3cccc(CN(C)CCC(=O)O)c3)no2)ccc1N1CCCCC1C (stereo unspecified) | inactive
CC1(C)Oc2ccc(C#N)cc2[C@@H](n2ccccc2=O)[C@]1(C)O | inactive
CC1=C(C(=O)N2CCc3ccc(C(F)(F)F)cc3C2)C2(CCN(C3CCOCC3)CC2)OC1=O | inactive
Cc1cc(C(=O)C(C)SN2C(=O)c3ccccc3C2=O)ccc1O (stereo unspecified) | inactive
COc1ccc(OC)c(Nc2nc3ccccc3nc2NS(=O)(=O)Cc2cccnc2)c1 | inactive
CCC(C)c1cc(C)c(C(=O)N=C(N)N)cc1S(C)(=O)=O (stereo unspecified) | inactive
COCc1cc(-c2nc(-c3ccc(CN(C)CC(=O)O)c(F)c3)no2)ccc1-c1ccccc1F | inactive
COCc1cc(-c2nc(-c3cccc(CN(C)CC(=O)O)c3)no2)ccc1N1CCCCC1 | inactive
CCC(CC)N1CCC2(CC1)OC(=O)C(C)=C2C(=O)N1CCc2ncc(C(F)(F)F)cc2C1 | inactive
CC1=C(C(=O)N2CCc3ncc(C(F)(F)F)cc3C2)C2(CCN(C3CCC(O)CC3)CC2)OC1=O (stereo unspecified) | inactive
O=C(c1cc(-c2ccccn2)nc2ccc(Br)cc12)N1CCCC1 | inactive
CS(=O)(=O)c1cccc(-c2ccc(Cn3cc(C(=O)O)c(=O)c4cccc(F)c43)cn2)c1 | inactive

SMILES | In vitro activity
COc1cc(S(C)(=O)=O)ccc1-c1nc2ccncc2[nH]1 | inactive
CCCCC[C@H](O)/C=C/[C@H]1CCC(=O)N1CCc1ccc(C(=O)O)cc1 | inactive
CCN1CCC2(CC1)OC(=O)C(C)=C2C(=O)N1C[C@@H]2C[C@H]1CN2c1nccc(C(F)(F)F)n1 | inactive
Cn1cc(-c2cnc3[nH]cc(-c4cn(Cc5cccc(F)c5F)nn4)c3c2)cn1 | inactive
O=C(O)c1ccc(-c2nc(NCc3ccc4c(c3)OCO4)c3cc(Cl)sc3n2)cc1 | inactive
CCc1cc(C)c(C(=O)N=C(N)N)cc1S(C)(=O)=O | inactive
O=C(O)c1ccc2[nH]cc(CCCCN3CC=C(c4ccccc4)CC3)c2c1 | inactive
CCCCCCN(Cc1ccc(C#Cc2ccc(CCCC)cc2)cc1)c1ccc(O)c(C(=O)O)c1 | inactive
COCc1cc(-c2nc(-c3ccc(CN(C)CC(=O)O)c(F)c3)no2)ccc1-c1ccccc1C | inactive
c1cnc(N2CCN(Cc3cncc(-c4ccsc4)c3)CC2)nc1 | inactive
O=C(O)c1ccc(C(=O)Nc2[nH]c3ccccc3c2C(=O)NCc2ccc3c(c2)OCO3)cc1 | inactive
Cc1cc(C2=CCCC2)c(S(C)(=O)=O)cc1C(=O)N=C(N)N | inactive
CCCN1CCC2(CC1)OC(=O)C(C)=C2C(=O)N1CCc2ccc(C(F)(F)F)cc2C1 | inactive
COc1ccccc1-n1c(=S)[nH]c2scc(C)c2c1=O | inactive
COc1nc(/C=C/c2nc3n(n2)CCC[C@@H]3c2ccccc2C(F)(F)F)ccc1-n1cnc(C)c1 | inactive
CCCCCCN(Cc1ccc(C#Cc2ccc(CCCC)cc2)cc1)c1ccc(F)c(C(=O)O)c1 | inactive
CC1=C(C(=O)N2CCc3ncc(C(F)(F)F)cc3C2)C2(CCN(C3CCCC3)CC2)OC1=O | inactive
CC(/C=C/c1cc(/C=C/C(C)=C/C(=O)O)cc(-c2ccc(C(F)(F)F)cc2)c1)=C\C(=O)O | inactive
CC1=C(C(=O)N2CCN(c3cccc(C(F)(F)F)c3)CC2)C2(CCN(C(C)C)CC2)OC1=O | inactive
CC1=C(C(=O)N2CCN(c3cccc(C(F)(F)F)c3)CC2)C2(CCN(CCc3ccccc3)CC2)OC1=O | inactive
COc1cc([S+]([O-])C(C)C)ccc1-c1nc2ccncc2[nH]1 (stereo unspecified) | inactive
CCOc1cc(CCNC(=O)C[C@H]2S[C@@H](c3ccc(C#Cc4ccccc4)cc3)N(c3cccc(C(N)=O)c3)C2=O)ccc1O | inactive

SMILES | In vitro activity
COc1ccc(CNc2nc(-c3ccc(C(=O)O)nc3)nc3sc4c(c23)CCCC4)cc1Cl | inactive
CO[C@@H]1COCC[C@@H]1N1CCC2(CC1)OC(=O)C(C)=C2C(=O)N1CCc2ccc(C(F)(F)F)cc2C1 | inactive
CCCc1nn(C)c2c(NCc3ccc(OC)c(Cl)c3)nc(CCCCC(=O)NS(C)(=O)=O)nc12 | inactive
COCc1cc(-c2nc(-c3ccc(CN(C)CC(=O)O)cc3)no2)ccc1-c1ccccc1C | inactive
COc1cc(OC)c(CCNC(=O)c2cn3cc(-c4cc(OCC(=O)O)ccc4OC)nc3s2)c(OC)c1 | inactive
CCc1cc(Oc2cccnc2)c(S(C)(=O)=O)cc1C(=O)N=C(N)N | inactive
CCOC(=O)Nc1ccc(C(=O)N2CCCC(c3ccc(OC)c(OCC)c3)=N2)cc1 | inactive
CCC(C)Oc1ccc(-c2nc(-c3cc(F)cc(CN(C)CCC(=O)O)c3)no2)cc1COC (stereo unspecified) | inactive
Cc1ccc(CNc2nc(N3CCC(C(=O)O)CC3)nc3sc4c(c23)CCCC4)cc1 | inactive
Oc1ccc2[nH]cc(CCCCN3CC=C(c4ccccc4)CC3)c2c1 | inactive
CC(c1cccc(-c2nnn[nH]2)c1)N(Cc1ccccc1)S(=O)(=O)c1ccc(Cl)cc1 (stereo unspecified) | inactive
CCOC(=O)CC1=NN(c2ccc(C(=O)O)cc2)C(=O)/C1=C\Nc1ccccc1CC | inactive
COc1cc(C(=O)Nc2cn(Cc3ccc(Cl)c(Cl)c3)nn2)ccc1-n1cnc(C)c1 | inactive
CC1=C(C(=O)N2COc3ccc(C(F)(F)F)cc3C2)C2(CCN(C(C)C)CC2)OC1=O | inactive
CC1=C(C(=O)N2CCc3ccc(C(F)(F)F)cc3C2)C2(CCN(C(C)(C)C)CC2)OC1=O | inactive
COc1cc(OC)c(CCNC(=O)c2ccc3nc(-c4cc(OC)ccc4OC)cn3c2)c(OC)c1 | inactive
O=C(O)C1CCN(c2nc(NCc3ccc4c(c3)OCO4)c3c4c(sc3n2)CCCC4)CC1 | inactive
CCc1cc2c(NCc3ccc(OC)c(Cl)c3)nc(-c3ccc(C(=O)O)cc3)nc2s1 | inactive
COc1ccc(OCc2nn[nH]n2)cc1-c1cn2cc(C(=O)NCCc3c(OC)cccc3OC)sc2n1 | inactive
COc1cc(SCCO)ccc1-c1nc2ccncc2[nH]1 | inactive
